We go through one compound from paper PMC3692405, “Disease-associated mutations in CNGB3 promote cytotoxicity in photoreceptor-derived cells” (Molecular Vision, 2013).

What all share (format): biochemical
What all share (settings): in the presence of 0.1 µM CPT-cGMP

The target of experiment [1] is T1, WT human CNGA3 plus WT CNGB3 heteromeric channels (Homo sapiens, UniProt Q16281+Q9NQW8).
T1 construct: expressed in transfected cells; host or cells: Xenopus laevis oocytes injected with cRNA transcribed from pGEMHE constructs
T1 sequence (Q16281 1-694): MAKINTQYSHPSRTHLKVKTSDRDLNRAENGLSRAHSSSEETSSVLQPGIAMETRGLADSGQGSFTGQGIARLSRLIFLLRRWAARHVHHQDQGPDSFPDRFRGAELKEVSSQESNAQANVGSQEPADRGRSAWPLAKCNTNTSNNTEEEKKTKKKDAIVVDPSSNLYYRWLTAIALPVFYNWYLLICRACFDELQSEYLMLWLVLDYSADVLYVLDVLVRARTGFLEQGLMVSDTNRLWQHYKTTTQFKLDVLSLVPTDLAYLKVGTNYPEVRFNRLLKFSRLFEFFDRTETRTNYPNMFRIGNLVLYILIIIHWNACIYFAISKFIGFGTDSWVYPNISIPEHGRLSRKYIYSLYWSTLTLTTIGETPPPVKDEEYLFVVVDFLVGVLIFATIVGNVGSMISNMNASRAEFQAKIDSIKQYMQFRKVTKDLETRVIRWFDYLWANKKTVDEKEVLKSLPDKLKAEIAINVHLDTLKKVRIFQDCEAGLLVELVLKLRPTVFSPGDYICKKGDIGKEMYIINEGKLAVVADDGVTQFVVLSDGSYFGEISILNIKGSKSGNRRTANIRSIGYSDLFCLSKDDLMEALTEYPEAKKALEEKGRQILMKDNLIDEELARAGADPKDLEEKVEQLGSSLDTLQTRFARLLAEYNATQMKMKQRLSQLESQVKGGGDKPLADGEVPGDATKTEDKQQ
T1 sequence (Q9NQW8 1-809): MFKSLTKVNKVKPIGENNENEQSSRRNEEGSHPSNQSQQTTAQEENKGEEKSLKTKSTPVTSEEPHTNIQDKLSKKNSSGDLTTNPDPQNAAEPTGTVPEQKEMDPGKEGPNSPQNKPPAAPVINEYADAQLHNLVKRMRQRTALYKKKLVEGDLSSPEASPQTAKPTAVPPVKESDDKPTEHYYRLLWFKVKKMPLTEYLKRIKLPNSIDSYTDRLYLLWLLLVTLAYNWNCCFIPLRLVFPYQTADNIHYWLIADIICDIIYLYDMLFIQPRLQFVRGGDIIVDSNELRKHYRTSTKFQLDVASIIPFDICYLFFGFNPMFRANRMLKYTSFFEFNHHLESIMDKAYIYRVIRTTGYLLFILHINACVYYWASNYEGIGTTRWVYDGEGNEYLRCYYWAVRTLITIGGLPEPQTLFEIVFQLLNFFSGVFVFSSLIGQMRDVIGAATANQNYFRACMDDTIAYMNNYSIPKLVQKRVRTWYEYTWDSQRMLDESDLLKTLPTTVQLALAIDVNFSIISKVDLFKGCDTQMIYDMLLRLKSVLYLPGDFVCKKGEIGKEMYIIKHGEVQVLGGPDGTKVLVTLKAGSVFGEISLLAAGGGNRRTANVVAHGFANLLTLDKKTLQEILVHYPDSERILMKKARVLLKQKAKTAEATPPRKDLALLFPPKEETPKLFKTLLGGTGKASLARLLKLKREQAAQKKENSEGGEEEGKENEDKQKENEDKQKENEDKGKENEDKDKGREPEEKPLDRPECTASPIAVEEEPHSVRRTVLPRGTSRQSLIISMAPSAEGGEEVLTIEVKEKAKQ
Briefly: Inside-out patch-clamp recording of channels expressed in Xenopus oocytes (WT heteromeric). The protocol:
(§1) For heterologous expression in Xenopus laevis oocytes, identical amounts of cDNA were linearized using SphI or NheI, and capped cRNA was transcribed in vitro using the T-7 RNA polymerase mMESSAGE mMACHINE® kit (Ambion, Austin, TX). cRNA concentrations and relative amounts were determined by denaturing gel electrophoresis and KODAK 1D image analysis software (Rochester, NY), as well as by spectrophotometry. […] Oocytes were incubated in ND96 (96 mM NaCl, 2 mM KCl, 1.8 mM CaCl2, 1 mM MgCl2, and 5 mM HEPES, pH 7.6, supplemented with 10 μg/ml gentamycin).
(§2) Two to seven days after microinjection of cRNA, patch-clamp experiments were performed using the inside-out configuration with an Axopatch 200B amplifier (Axon Instruments, Foster City, CA). Recordings were made at 20–23 °C. Data were acquired using Pulse software (HEKA Elektronik, Lambrecht, Germany). Current traces were elicited by voltage steps from a holding potential of 0 mV to +80 mV, then to −80 mV and back to 0 mV. Initial pipette resistances were 0.4–0.8 megaohms. Intracellular and extracellular solutions contained 130 mM NaCl, 0.2 mM EDTA, and 3 mM HEPES (pH 7.2). Intracellular solutions were exchanged using an RSC-160 rapid solution changer (Molecular Kinetics, Indianapolis, IN). Currents in the absence of cyclic nucleotides were subtracted. For channel activation by CPT-cGMP or CPT-cAMP, dose–response data were fitted with the Hill equation, I/Imax=([cNMP]^h/(K1/2^h + [cNMP]^h)), where I is the current amplitude at +80 mV, Imax is the maximum current elicited by saturating concentration of ligand, [cNMP] is the ligand concentration, K1/2 is the apparent ligand affinity, and h is the Hill slope. We measured sensitivity to block by L-cis-diltiazem (RBI, Natick, MA) applied to the intracellular face of the patch in the presence of 0.1 μM CPT-cGMP. Data were fit with a modified Hill equation in the form I blocker/I=(K1/2^h/(K1/2^h + [blocker]^h)). Data were analyzed using Igor (Wavemetrics, Lake Oswego, OR), SigmaPlot, and SigmaStat (Systat Software Inc., San Jose, CA). All values are reported as the mean±standard error of the mean of n experiments unless otherwise indicated. Statistical significance was determined using a Student t test or Mann–Whitney rank sum test, and a p value of <0.05 was considered significant.
In general terms: Patch clamp records ionic current or voltage across a cell membrane.

The target in experiment [2] is T2, CNGA3 plus CNGB3 T383fsX channels (Homo sapiens, UniProt Q16281).
T2 construct: expressed in transfected cells; host or cells: Xenopus laevis oocytes injected with cRNA transcribed from pGEMHE constructs
T2 sequence (Q16281 1-694): T1 sequence (Q16281 1-694)
Briefly: Inside-out patch-clamp recording of channels expressed in Xenopus oocytes (CNGB3 T383fsX). Here is the method:
as §1, §2

Experiment [3] concerns the target T3, CNGA3 plus CNGB3-F525N channels (Homo sapiens, UniProt Q16281+Q9NQW8, F525N).
T3 construct: expressed in transfected cells; host or cells: Xenopus laevis oocytes injected with cRNA transcribed from pGEMHE constructs
T3 sequence (Q16281 1-694): T1 sequence (Q16281 1-694)
T3 sequence (Q9NQW8 1-809 F525N): T1 sequence (Q9NQW8 1-809) with F525N
Briefly: Inside-out patch-clamp recording of channels expressed in Xenopus oocytes (CNGB3 F525N). Here is the method: as §1, §2

Setting [4] is: Figure 6B, read-out: K1/2,L-cis-dilt., dose-response fit of Figure 6B.
The mark [5] stands for this setting: intracellular face, mean±SEM, n=5, read-out: apparent affinity for L-cis-diltiazem K1/2, L-cis-dilt. (channel block).

Substitutions are numbered along the chain they refer to. Read-outs that look alike come from different tables or passages of the source.

Consider `COc1ccc([C@@H]2Sc3ccccc3N(CCN(C)C)C(=O)[C@@H]2OC(C)=O)cc1` [L-cis-diltiazem], for which the entries for the “Hill slope h, block by L-cis-diltiazem, Figure 6B” value in experiment [1] (Figure 6B), in experiment [2] (Figure 6B) and in experiment [3] (Figure 6B) were 0.5, 0.3 and 0.7, respectively. Further, the IC50 in experiment [1] (setting [4]) amounted to 4.1 µM; in experiment [1] (setting [5]) it was 4.06 ± 1 µM; in experiment [2] (setting [4]) it was 135 µM; in experiment [2] (intracellular face, mean±SEM, n=4, read-out: apparent affinity for L-cis-diltiazem K1/2, L-cis-dilt. (channel block)), 77.9 ± 23.1 µM; in experiment [3] (setting [4]), 4.2 µM; in experiment [3] (setting [5]), 3.03 ± 0.75 µM.
